The values below come from ChEMBL document CHEMBL3351708, “Synthesis of new pyridazino[4,5-b]indol-4-ones and pyridazin-3(2H)-one analogs as DYRK1A inhibitors” (Bioorg Med Chem Lett, 2014).

The nature of assay [1]: Antiproliferative activity against human fibroblast cells. It is filed as cell-based.
Assay [2] deals with Glycogen synthase kinase-3 (Homo sapiens, UniProt P49840+P49841). Briefly: Inhibition of GSK3alpha/beta (unknown origin). It is filed as protein assay.
The nature of assay [3]: Antiproliferative activity against human PC3 cells. As to conditions: PC-3. It is filed as functional, cell-based.
The nature of assay [4]: Antiproliferative activity against human Caco2 cells. It is filed as functional, cell-based. As to conditions: Caco-2.
Assay [5] in a line: Antiproliferative activity against human HCT116 cells. It is filed as functional, cell-based. As to conditions: HCT-116.
For assay [6], the target named is Dual specificity tyrosine-phosphorylation-regulated kinase 1A (Homo sapiens, UniProt Q13627). The assay is described as follows: Inhibition of DYRK1A (unknown origin).
The nature of assay [7]: Antiproliferative activity against human HuH7 cells. It is filed as functional, cell-based. As to conditions: Huh-7.
Assay [8] has as its target Cyclin-dependent kinase 5/CDK5 activator 1 (Homo sapiens, UniProt Q00535). Briefly: Inhibition of CDK5/p25 (unknown origin). It is filed as protein-complex assay.
For assay [9], the target named is Phosphatidylinositol 4,5-bisphosphate 3-kinase catalytic subunit alpha isoform (Homo sapiens, UniProt P42336). Briefly: Inhibition of p110alpha (unknown origin).
Chain of Phosphatidylinositol 4,5-bisphosphate 3-kinase catalytic subunit alpha isoform (P42336 whole entry, canonical isoform): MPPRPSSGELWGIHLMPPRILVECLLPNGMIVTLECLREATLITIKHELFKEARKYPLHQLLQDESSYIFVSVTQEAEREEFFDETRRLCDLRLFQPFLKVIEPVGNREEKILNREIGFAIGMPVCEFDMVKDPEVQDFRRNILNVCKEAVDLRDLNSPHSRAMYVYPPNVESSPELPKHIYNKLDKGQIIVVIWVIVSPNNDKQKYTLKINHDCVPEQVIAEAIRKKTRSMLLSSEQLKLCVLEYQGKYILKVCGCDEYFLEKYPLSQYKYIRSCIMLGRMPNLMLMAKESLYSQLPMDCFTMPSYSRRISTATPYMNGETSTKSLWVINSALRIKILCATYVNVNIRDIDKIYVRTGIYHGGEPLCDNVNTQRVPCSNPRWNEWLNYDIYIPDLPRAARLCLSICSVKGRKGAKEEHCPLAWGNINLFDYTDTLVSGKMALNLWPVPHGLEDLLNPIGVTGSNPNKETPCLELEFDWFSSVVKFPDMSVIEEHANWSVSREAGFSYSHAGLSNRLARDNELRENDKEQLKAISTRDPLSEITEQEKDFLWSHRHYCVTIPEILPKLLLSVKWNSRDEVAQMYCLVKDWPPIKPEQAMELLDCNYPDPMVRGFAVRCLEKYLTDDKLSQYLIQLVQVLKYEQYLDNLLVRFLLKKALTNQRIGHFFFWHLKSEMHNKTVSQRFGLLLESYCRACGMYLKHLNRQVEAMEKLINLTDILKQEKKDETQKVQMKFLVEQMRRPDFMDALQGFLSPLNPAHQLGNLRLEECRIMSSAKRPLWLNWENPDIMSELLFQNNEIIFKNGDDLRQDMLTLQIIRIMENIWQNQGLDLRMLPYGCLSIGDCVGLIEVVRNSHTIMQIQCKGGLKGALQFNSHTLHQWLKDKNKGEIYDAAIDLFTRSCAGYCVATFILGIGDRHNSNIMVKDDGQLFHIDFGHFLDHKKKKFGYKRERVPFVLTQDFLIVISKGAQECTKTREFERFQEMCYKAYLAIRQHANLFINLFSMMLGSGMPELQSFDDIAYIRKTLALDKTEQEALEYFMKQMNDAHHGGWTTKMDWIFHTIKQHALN
Assay [10] deals with MDA-MB-231. The assay is described as follows: Antiproliferative activity against human MDA-MB-231 cells. It is filed as functional, cell-based.
A further assay relates to NCI-H727. The assay is described as follows: Antiproliferative activity against human NCI-H727 cells. It is filed as functional, cell-based.
In assay [11] the test system is MDA-MB-231. Briefly: Antiproliferative activity against human MDA-MB-231 cells assessed as decrease in cell growth. It is filed as functional.
Assay [12] can be described thus: Antiproliferative activity against human HCT116 cells assessed as decrease in cell growth. It is filed as functional, HCT-116.
The nature of assay [13]: Antiproliferative activity against human HuH7 cells assessed as decrease in cell growth. It is filed as functional, Huh-7.

A value given as a limit tells only on which side of the number the result lay.

Chain of Cyclin-dependent kinase 5/CDK5 activator 1 (Q00535 whole entry, canonical isoform): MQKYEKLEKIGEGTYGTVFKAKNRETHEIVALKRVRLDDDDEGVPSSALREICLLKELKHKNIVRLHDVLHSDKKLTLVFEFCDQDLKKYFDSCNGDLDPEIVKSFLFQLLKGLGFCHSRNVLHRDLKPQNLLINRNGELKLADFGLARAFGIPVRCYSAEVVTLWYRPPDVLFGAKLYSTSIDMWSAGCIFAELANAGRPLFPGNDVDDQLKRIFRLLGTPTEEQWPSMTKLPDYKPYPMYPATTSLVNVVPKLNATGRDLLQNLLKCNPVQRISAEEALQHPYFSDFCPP
Chain of Cyclin-dependent kinase 5/CDK5 activator 1 (Q15078 whole entry, further chain, canonical isoform): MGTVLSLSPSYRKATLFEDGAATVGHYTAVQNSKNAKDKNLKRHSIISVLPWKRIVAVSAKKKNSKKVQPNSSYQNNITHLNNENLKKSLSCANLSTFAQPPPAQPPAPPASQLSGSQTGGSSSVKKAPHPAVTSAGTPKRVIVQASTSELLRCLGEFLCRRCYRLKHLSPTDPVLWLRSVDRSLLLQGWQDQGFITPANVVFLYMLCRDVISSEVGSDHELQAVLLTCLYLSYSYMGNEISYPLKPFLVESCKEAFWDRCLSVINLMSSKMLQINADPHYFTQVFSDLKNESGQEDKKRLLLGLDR

Turning to `COc1ccc2[nH]c3c(=O)[nH]nc(C)c3c2c1`, the IC50 in assay [1] was 20 µM; in assay [2], greater than 10 µM; in assay [3], 7 µM; in assay [4], 8 µM; in assay [5] it was 15 µM; in assay [6], 5 µM. Also, the IC50 is 3 µM in [7] and greater than 10 µM in assay [8].

On to `COc1ccc(Nc2cc(-c3ccco3)n[nH]c2=O)cc1`, for which the IC50 in assay [1] was greater than 25 µM; in assay [2] it was greater than 10 µM; in assay [3] it was greater than 25 µM; in assay [4] it was greater than 25 µM; in assay [5], greater than 25 µM; in assay [9], greater than 10 µM. Besides, the IC50 in assay [6] is greater than 10 µM; with MDA-MB-231 [10] it was greater than 25 µM; with NCI-H727 it was greater than 25 µM; in assay [7], greater than 25 µM; in [8] it was greater than 10 µM.

On to `COc1ccc(Nc2cc(C)n[nH]c2=O)cc1`, for which the IC50 in assay [2], in assay [6] and in assay [8] was greater than 10 µM throughout.

For `COc1ccc(Nc2cc(-c3ccncc3)n[nH]c2=O)cc1`, the IC50 in assay [1] was greater than 25 µM; in [2] it was 9.6 µM; in assay [3], greater than 25 µM; in [4], greater than 25 µM; in assay [5], greater than 25 µM; in assay [9], greater than 10 µM. The IC50 in [6] was 0.61 µM; with MDA-MB-231 [10] it was greater than 25 µM; in the assay on NCI-H727 it was greater than 25 µM; in assay [7], greater than 25 µM; in assay [8], greater than 10 µM.

With `COc1ccc2[nH]c3c(=O)[nH]nc(-c4ccc(C(F)(F)F)cc4)c3c2c1`, the IC50 in [1] was greater than 25 µM; in assay [2], greater than 10 µM; in assay [3] it was greater than 25 µM; in assay [4], greater than 25 µM; in [5] it was greater than 25 µM; in assay [9], 6.9 µM. In addition, the IC50 in assay [6] was greater than 10 µM; in the assay on MDA-MB-231 [10] it was greater than 25 µM; in the assay with NCI-H727, greater than 25 µM; in assay [7], greater than 25 µM; in assay [8], greater than 10 µM.

In the case of `COc1ccc2[nH]c3c(=O)[nH]nc(-c4ccco4)c3c2c1`, the IC50 in assay [1] is greater than 25 µM; in [2], greater than 10 µM; in assay [3] it was greater than 25 µM; in assay [4], 0.6 µM; in assay [5] it was 3 µM; in assay [9], greater than 10 µM. For the same compound, the IC50 was 0.22 µM in [6]; 0.3 µM in the assay with MDA-MB-231 [10]; greater than 25 µM in the assay on NCI-H727; 0.25 µM in assay [7]; greater than 10 µM in assay [8]. Besides, the “inhibition (INH)” value (with MDA-MB-231 [11]; in [12]; in assay [13]) was 50% in each case.

Consider `COc1ccc(Nc2cc(-c3ccc(OC)cc3)n[nH]c2=O)cc1`, for which the IC50 in assay [2] was 2.5 µM; in assay [6] it was 5.1 µM; in assay [8], greater than 10 µM.

Regarding `COc1ccc(Nc2cc(-c3ccccc3)n[nH]c2=O)cc1`, the IC50 is greater than 25 µM in assay [1]; greater than 10 µM in [2]; greater than 25 µM in [3]; greater than 25 µM in [4]; greater than 25 µM in assay [5]; greater than 10 µM in [9]. Moreover, the IC50 is greater than 10 µM in [6]; greater than 25 µM with MDA-MB-231 [10]; greater than 25 µM with NCI-H727; greater than 25 µM in assay [7]; greater than 10 µM in [8].

Take `COc1ccc(-c2n[nH]c(=O)c3[nH]c4ccc(OC)cc4c23)cc1`: the IC50 is greater than 25 µM in assay [1]; 1.4 µM in [2]; greater than 25 µM in assay [3]; greater than 25 µM in assay [4]; greater than 25 µM in [5]; greater than 10 µM in assay [9]. In addition, the IC50 in assay [6] was 1.5 µM; with MDA-MB-231 [10], greater than 25 µM; in the assay with NCI-H727, greater than 25 µM; in [7], greater than 25 µM; in [8], greater than 10 µM.

Consider `COc1ccc2[nH]c3c(=O)[nH]nc(-c4ccccc4)c3c2c1`, for which the figures for the IC50 in assay [2], in assay [9] and in assay [6] were 1.3 µM, greater than 10 µM and greater than 10 µM, respectively.
